Experimental data published in the supplement of paper PMC10307832.

Assays:
Assay in all cases: relative viability (nuclei count vs DMSO), 5 days (fraction); higher = more cells survive
Tozasertib + OSI-027 = compound: Cc1cc(Nc2cc(N3CCN(C)CC3)nc(Sc3ccc(NC(=O)C4CC4)cc3)n2)n[nH]1 [Tozasertib] + COc1cccc2cc(-c3nc([C@H]4CC[C@H](C(=O)O)CC4)n4ncnc(N)c34)[nH]c12 [OSI-027] (partner 0.5 µM); conditions: first compound 0.1265 µM
Procedure, shortened: (§1)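 Lung cancer cell lines, seeded in 1536-well plates, were treated the following day by pin tool with a single drug or with five library-drug doses (not always all listed) in √10 steps on top of a fixed anchor-drug dose. Cells were fixed and nuclei stained in one step after 5 days, and nuclei were counted. Relative viability is the nuclei count for treated wells divided by that for vehicle wells, reported as medians of duplicate plates.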

Tozasertib + Decitabine = compound: Cc1cc(Nc2cc(N3CCN(C)CC3)nc(Sc3ccc(NC(=O)C4CC4)cc3)n2)n[nH]1 [Tozasertib] + Nc1ncn([C@H]2C[C@H](O)[C@@H](CO)O2)c(=O)n1 [Decitabine] (partner 2 µM)
Procedure, shortened: as §1

Tozasertib + Pemetrexed = compound: Cc1cc(Nc2cc(N3CCN(C)CC3)nc(Sc3ccc(NC(=O)C4CC4)cc3)n2)n[nH]1 [Tozasertib] + Nc1nc2[nH]cc(CCc3ccc(C(=O)N[C@@H](CCC(=O)O)C(=O)O)cc3)c2c(=O)[nH]1 [Pemetrexed] (partner 0.2 µM)
Procedure, shortened: as §1

Tozasertib + AZD7762 = compound: Cc1cc(Nc2cc(N3CCN(C)CC3)nc(Sc3ccc(NC(=O)C4CC4)cc3)n2)n[nH]1 [Tozasertib] + NC(=O)Nc1cc(-c2cccc(F)c2)sc1C(=O)N[C@H]1CCCNC1 [AZD7762] (partner 0.2 µM)
Procedure, shortened: as §1

Tozasertib + Palbociclib = compound: Cc1cc(Nc2cc(N3CCN(C)CC3)nc(Sc3ccc(NC(=O)C4CC4)cc3)n2)n[nH]1 [Tozasertib] + CC(=O)c1c(C)c2cnc(Nc3ccc(N4CCNCC4)cn3)nc2n(C2CCCC2)c1=O [Palbociclib] (partner 0.5 µM)
Procedure, shortened: as §1

Tozasertib + Trametinib = compound: Cc1cc(Nc2cc(N3CCN(C)CC3)nc(Sc3ccc(NC(=O)C4CC4)cc3)n2)n[nH]1 [Tozasertib] + CC(=O)Nc1cccc(-n2c(=O)n(C3CC3)c(=O)c3c(Nc4ccc(I)cc4F)n(C)c(=O)c(C)c32)c1 [Trametinib] (partner 0.02 µM)
Procedure, shortened: as §1

Tozasertib + Vorinostat = compound: Cc1cc(Nc2cc(N3CCN(C)CC3)nc(Sc3ccc(NC(=O)C4CC4)cc3)n2)n[nH]1 [Tozasertib] + O=C(CCCCCCC(=O)Nc1ccccc1)NO [Vorinostat] (partner 1 µM)
Procedure, shortened: as §1

Tozasertib + Olaparib = compound: Cc1cc(Nc2cc(N3CCN(C)CC3)nc(Sc3ccc(NC(=O)C4CC4)cc3)n2)n[nH]1 [Tozasertib] + O=C(c1cc(Cc2n[nH]c(=O)c3ccccc23)ccc1F)N1CCN(C(=O)C2CC2)CC1 [Olaparib] (partner 8 µM)
Procedure, shortened: as §1

Tozasertib = compound: Cc1cc(Nc2cc(N3CCN(C)CC3)nc(Sc3ccc(NC(=O)C4CC4)cc3)n2)n[nH]1 [Tozasertib]
Procedure, shortened: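 Five library-drug doses spaced by √10 were pinned onto vehicle-anchored 1536-well plates of lung cancer cell lines that had been kept overnight at 37 °C. Cells went 5 days without medium change, then were fixed, permeabilised and Hoechst-stained together, imaged at 4× and counted by MetaXpress. Viability is the ratio of treated-well to vehicle-well nuclei, taken as a median over plates. Plates required control CV below 25% and at least one doubling.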

Cell Line NCI-H1648 has a relative viability (Tozasertib + OSI-027) of 0.237, a relative viability (Tozasertib + Decitabine; first compound 0.004 µM) of 0.461 and a relative viability (Tozasertib + Decitabine; first compound 0.01265 µM) of 0.461. For the same cell line, the relative viability (Tozasertib + Decitabine; first compound 0.04 µM) was 0.383, the relative viability (Tozasertib + Decitabine; first compound 0.1265 µM) was 0.401 and the relative viability (Tozasertib + Pemetrexed; first compound 0.004 µM) was 0.891. It also gave a relative viability (Tozasertib + Pemetrexed; first compound 0.01265 µM) of 0.665, a relative viability (Tozasertib + Pemetrexed; first compound 0.04 µM) of 0.773 and a relative viability (Tozasertib + Pemetrexed; first compound 0.1265 µM) of 0.615. The relative viability (Tozasertib + AZD7762; first compound 0.004 µM) was 0.717, the relative viability (Tozasertib + AZD7762; first compound 0.01265 µM) was 0.619 and the relative viability (Tozasertib + AZD7762; first compound 0.04 µM) was 0.596. It also gave a relative viability (Tozasertib + AZD7762; first compound 0.1265 µM) of 0.393, a relative viability (Tozasertib + Palbociclib; first compound 0.004 µM) of 0.279 and a relative viability (Tozasertib + Palbociclib; first compound 0.01265 µM) of 0.304. The relative viability (Tozasertib + Palbociclib; first compound 0.04 µM) was 0.276, the relative viability (Tozasertib + Palbociclib; first compound 0.1265 µM) was 0.255 and the relative viability (Tozasertib + Trametinib; first compound 0.004 µM) was 0.488. The relative viability (Tozasertib + Trametinib; first compound 0.01265 µM) was 0.444, the relative viability (Tozasertib + Trametinib; first compound 0.04 µM) was 0.425 and the relative viability (Tozasertib + Trametinib; first compound 0.1265 µM) was 0.41. The relative viability (Tozasertib + Vorinostat; first compound 0.004 µM) was 0.42, the relative viability (Tozasertib + Vorinostat; first compound 0.01265 µM) was 0.296 and the relative viability (Tozasertib + Vorinostat; first compound 0.04 µM) was 0.425. It also gave a relative viability (Tozasertib + Vorinostat; first compound 0.1265 µM) of 0.379, a relative viability (Tozasertib + Olaparib; first compound 0.004 µM) of 1.64 and a relative viability (Tozasertib + Olaparib; first compound 0.01265 µM) of 0.767. For the same cell line, the relative viability (Tozasertib + Olaparib; first compound 0.04 µM) was 0.844, the relative viability (Tozasertib + Olaparib; first compound 0.1265 µM) was 0.531 and the relative viability (Tozasertib; 0.01265 µM) was 0.779. For the same cell line, the relative viability (Tozasertib; 0.04 µM) was 0.743, the relative viability (Tozasertib; 0.1 µM, anchor plate) was 0.497 and the relative viability (Tozasertib; 0.1265 µM) was 0.79.
